Format in all cases: physicochemical
Data set [1] is described as follows: Fatigue life of fulgide/fulgimide and chromene compound in polymerized plate with ultraviolet light stabilizer (Example 16). To be noted: for T1/2 of fulgide or fulgimide compound: 0.05 part.
Data set [2] in a line: Fatigue life of fulgide/fulgimide and chromene compound in polymerized methacrylate plate (Example 15). To be noted: for T1/2 of fulgide or fulgimide compound: 0.05 part. The method, then: (§1) […] The mixed solution was injected into a mold which was made of a glass plate and a gasket formed of an ethylene-vinyl acetate copolymer, and was heated to a temperature of 35° to 90° C. in an air oven over a period of 20 hours for polymerization. After the polymerization was over, the polymer was withdrawn from the glass plate of the mold.
(§2) The resulting polymerized plate was irradiated with sunlight for 10 minutes. On this occasion, a color tone of said plate was visually observed. In this polymerized plate, the fulgide or fulgimide compound and the chromene compound were measured for fatigue life in the same manner as in Example 9. Further, a color tone of the polymerized plate was visually observed in T1/2 (hrs.) of the fulgide or fulgimide compound.

Data set [3] can be described thus: Visual color tone of polymerized plate under sunlight (Example 15). To be noted: 0.05 part. The method, then:
as §1, §2

The nature of data set [4]: Durability of poly(allyl diglycol carbonate) lens impregnated with the compound in silicone oil, as in Example 9 (Example 10). Set-up: Initial color density: unit not given here. To be noted: silicone oil impregnation. On the procedure: (§3) T1/2 is defined as the time required for the color density to decrease to half of its initial value when the film is exposed to the fadeometer.
The solution was impregnated in the surface of a lens composed of poly(allyl diglycol carbonate) at 200° C. for 1 hour. The concentration of the solution was adjusted to 1.0×10^-4 mole/g.

A short description of data set [5]: Photochromic PMMA cast film: initial coloration density, maximum absorption wavelength and fatigue life in xenon fadeometer (Example 9).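 On Initial color density: initial color density is an absorbance value so the % unit is wrong.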 To be noted: PMMA cast film 0.1 mm.
Excerpt: The thickness of the cast film was adjusted to 0.1 mm.
as §3

The mark [6] stands for this setting: with chromenes 1/2 (0.015/0.015 part).

With `CC1=Cc2c(ccc3ccccc23)OC12CC1CCC2C1` (stereo not drawn) [Chromene compound 4, 3'-methylspiro[norbornane-2,2'-[2H]benzo-[f]chromene]], the “T1/2 of chromene compound” value in data set [1] (0.01 part, fulgimide 2 (0.05), LS-2626 (0.4)) amounted to 20 days; in data set [1] (0.1 part, fulgimide 48 (0.05), UV Check AM101 (0.4)) it was 17.9 days; in data set [2] (0.04 part, with fulgide/fulgimide 24 (0.05 part)) it was 6.33 days; in data set [2] (0.08 part, with fulgide/fulgimide 12 (0.05 part)), 7.5 days.
Regarding `CC1CC1C1=C2C(=O)N(CCCCCc3cccc4ccccc34)C(=O)C2C2(c3sc4c(c31)CCCC4)C1CC3CC(C1)CC2C3` (stereo not drawn) [(48)], the “T1/2 of fulgide or fulgimide compound” value turned out to be 17.9 days in data set [1] (chromene 1 (0.04), Spinuvex A-36 (0.6)); 17.5 days in data set [1] (chromene 2 (0.05), Cyasorb UV 1084 (0.6)); 18.8 days in data set [1] (chromene 3 (0.1), Tinuvin 765 (0.7)); 18.3 days in data set [1] (chromene 4 (0.1), UV Check AM101 (0.4)); 18.8 days in data set [1] (chromene 5 (0.05), Tinuvin 622 (0.7)); 6.42 days in data set [2] (with chromene 1 (0.04 part)). For the same compound, the “T1/2 of fulgide or fulgimide compound” value in data set [2] (setting [6]) turned out to be 6.42 days. For the same compound, the “Color tone in T0” value in data set [3] (with chromene 1 (0.04 part)) and in data set [3] (setting [6]) was “gray” throughout. Also, the “Color tone in T1/2” value in data set [3] (with chromene 1 (0.04 part)) and in data set [3] (setting [6]) was “gray” each time. The λmax is given as 590 nm in data set [4] and 588 nm in data set [5] (xenon light). In addition, the Initial color density in data set [4] (1.0×10^-4 mole/g) is 0.67; in data set [5] (xenon light, no stabilizer), 0.75%. Also, the T1/2 is 2.71 days in data set [4] (xenon fadeometer) and 2.58 days in data set [5] (time for color density to fall to half of initial value, xenon fadeometer, no stabilizer).

The record behind these values is patent US5708063A, “Photochromic compound” (Tokuyama Corporation, priority 1993, dated 1998).
